Measurements as given in patent US20240308985A1 (Psy Therapeutics, Inc., priority 2021, published 2024).
Where two headings read alike, the source gives them in different places. One block for each compound: values may come before it.

Biological target: Monoacylglycerol Lipase (MAGL) (Homo sapiens (Human), UniProt Q99685)
Assay: MAGL inhibition potency (IC50) assay with 4NPA substrate
Type: biochemical
From the text: The potency of certain compounds for inhibiting MAGL were obtained using the following assays. The monoacylglycerol lipase inhibitor screening assay kit from Cayman Chemical was used to measure the MAGL potency for the compounds in Table 6 and Table 7. Cayman's Monoacylglycerol Lipase Inhibitor Screening Assay provides a method for screening human MAGL inhibitors. MAGL hydrolyzes 4-nitrophenylacetate resulting in a yellow product, 4-nitrophenol, with an absorbance of 405-412 nm. MAGL Inhibition was measured by the following assay. Monoacylglycerol Lipase (MAGL) inhibition was measured using recombinant MAGL enzyme (aa 2-303 RBC, internal preparation) and the substrate 4-Nitrophenyl acetate (4NPA) (Sigma-Aldrich, N8130). Hydrolysis of the substrate in the presence of the enzyme was measured by absorbance at 405 nm. 10 μL of assay buffer (10 mM Tris pH 7.5, 1 mM EDTA, 0.9% DMSO) was added to a black 384-well non-binding plate with clear bottom (Greiner, 781906) for each reaction. […] DMSO control wells were included for reference. A 10.8 nM (1.8×) MAGL mix in assay buffer was prepared, with 25 μL added to each reaction well, for a final assay concentration of 6 nM. No enzyme wells received 25 μL of buffer. Plate was incubated at room temperature for 30 minutes. 35 mM solution of 4NPA in methanol was prepared daily. A 4.5×4NPA substrate solution was prepared in assay buffer and 10 μL was added to each reaction well, for a final assay concentration of 0.25 mM. Plate was spun for 1 minute at 1000 rpm before measuring absorbance using a CLARIOstar plate reader (BMG Labtech). A kinetic reading at 405 nm was done every minute for 30 minutes. Data was analyzed using the linear slope of the reaction progress curve and the average of the no-enzyme wells (background) was subtracted from the data. The background-subtracted slope data was converted to % activity using the average of wells with enzyme and DMSO vehicle. IC50s were calculated using GraphPad software (Sigmoidal dose response, variable slope equation). […] Table 8 provides potency measurements of MAGL inhibition measured using the Potency Assay of Example 22 above, with the following modifications described in Table C. [table]

[1] = Method 6: Reaction Biology MAGL enzyme, 6 nM, read-out: Potency (MAGL inhibition)
[2] = Method 12: Reaction Biology MAGL enzyme, 15 nM, read-out: Potency (MAGL inhibition)
[3] = Method 6: Reaction Biology MAGL enzyme, 6 nM, read-out: MAGL Potency (Detection Method)
[4] = Method 2: Cayman Chemical MAGL enzyme, 10 nM, read-out: MAGL Potency (Detection Method)
[5] = Method 11: Reaction Biology MAGL enzyme, 25 nM (name: Conc 20), read-out: MAGL Potency (Detection Method)
[6] = Method 14: Reaction Biology MAGL enzyme, 6 nM, read-out: MAGL Potency (Detection Method)
[7] = Method 2: Cayman Chemical MAGL enzyme, 10 nM, read-out: Potency (MAGL inhibition)
[8] = Method 13: Reaction Biology MAGL enzyme, 12 nM, read-out: MAGL Potency (Detection Method)
[9] = Method 12: Reaction Biology MAGL enzyme, 15 nM, read-out: MAGL Potency (Detection Method)

Chain of Monoacylglycerol Lipase (MAGL) (Q99685 2-303): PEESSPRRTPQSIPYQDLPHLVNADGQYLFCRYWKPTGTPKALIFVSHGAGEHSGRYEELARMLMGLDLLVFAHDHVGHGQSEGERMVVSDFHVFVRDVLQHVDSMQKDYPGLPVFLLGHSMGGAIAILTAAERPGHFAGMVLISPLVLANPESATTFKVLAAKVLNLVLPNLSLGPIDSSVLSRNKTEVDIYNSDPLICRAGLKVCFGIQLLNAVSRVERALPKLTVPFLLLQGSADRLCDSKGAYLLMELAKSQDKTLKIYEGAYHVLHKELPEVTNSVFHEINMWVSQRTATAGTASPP

Structure (SMILES): Cc1cc(-c2ccccc2C)n(C2CC3(C2)CN(C(=O)c2cc(O)ccc2F)C3)n1 [Compound 406]
IC50 [1]: > 10000 nM

Structure (SMILES): Cc1cc(-c2cc(F)ccc2C)n(C2CC3(C2)CN(C(=O)c2ccc(F)cc2OC(F)F)C3)n1 [Compound 428]
IC50 [3]: 150 to 500 nM

Structure (SMILES): Cc1cc(C2CC3(C2)CN(C(=O)c2ccc(F)c(O)c2)C3)n(-c2ccccc2C)n1 [Compound 141, (4-fluoro-3-hydroxyphenyl)(6-(3-methyl-1-(o-tolyl)-1H-pyrazol-5-yl)-2-azaspiro[3.3]heptan-2-yl)methanone]
IC50 (Method 1: Reaction Biology MAGL enzyme, 6 nM, read-out: MAGL Potency (Detection Method)): 50 to 150 nM
IC50 [4]: 150 to 500 nM

Structure (SMILES): Cc1cc(C2CC3(C2)CN(Cc2cc(O)ccc2F)C3)n(-c2ccccc2C)n1 [Compound 150]
IC50 (read-out: Potency (MAGL inhibition)): > 10000 nM

Structure (SMILES): O=C(c1cc(O)ccc1F)N1CC2(CC(n3cc(C4CC4)c(-c4ccccc4Cl)n3)C2)C1 [Compound 445]
IC50 [1]: > 10000 nM

Structure (SMILES): Cc1cc(C2CC3(C2)CN(C(=O)c2ccc(F)cc2OC(C)C)C3)n(-c2ccccc2C)n1 [Compound 177, (4-fluoro-2-isopropoxyphenyl)(6-(3-methyl-1-(o-tolyl)-1H-pyrazol-5-yl)-2-azaspiro[3.3]heptan-2-yl)methanone]
IC50 [4]: 50 to 150 nM

Structure (SMILES): Cc1cnn(C2CC3(C2)CN(C(=O)c2ccc(F)cc2OC2CC2)C3)c1-c1ccccc1C(F)(F)F [Compound 420, (2-cyclopropoxy-4-fluorophenyl)(6-{4-methyl-5-[o-(trifluoromethyl)phenyl]-1-pyrazolyl}-2-aza-2-spiro[3.3]heptyl)methanone]
IC50 [3]: 1000 to 5100 nM

Structure (SMILES): Cc1ccccc1-c1nnc(C2CC3(C2)CN(C(=O)c2cc(O)ccc2F)C3)o1 [Compound 378, (2-fluoro-5-hydroxyphenyl){6-[5-(o-tolyl)-1,3,4-oxadiazol-2-yl]-2-aza-2-spiro[3.3]heptyl}methanone]
IC50 [6]: 500 to 1000 nM

Structure (SMILES): CCOc1ccccc1C(=O)N1CC2(CC(c3cc(C)nn3-c3ccccc3C)C2)C1 [Compound 145, (2-ethoxyphenyl)(6-(3-methyl-1-(o-tolyl)-1H-pyrazol-5-yl)-2-azaspiro[3.3]heptan-2-yl)methanone]
IC50 [4]: 1000 to 5100 nM

Structure (SMILES): Cc1cc(C2CC3(C2)CN(C(=O)c2c(F)ccc(O)c2C)C3)n(-c2ccccc2C)n1 [Compound 370]
IC50 [6]: 500 to 1000 nM

Structure (SMILES): CCOc1cc(F)ccc1C(=O)N1CC2(CC(C(=O)Nc3ccccc3C)C2)C1 [Compound 188]
IC50 [7]: > 10000 nM

Structure (SMILES): Cc1cc(C2CC3(C2)CN(C(=N)c2cc(O)ccc2F)C3)n(-c2ccccc2C)n1 [Compound 144]
IC50 [7]: > 10000 nM

Structure (SMILES): COc1cc(F)ccc1CN1CC2(CC(c3cc(C)nn3-c3ccccc3C)C2)C1 [Compound 149]
IC50 [7]: > 10000 nM

Structure (SMILES): Cc1ccc(F)cc1-c1c(C)cnn1C1CC2(C1)CN(C(=O)c1ccc(F)cc1OC1CC1)C2 [Compound 422, (2-cyclopropoxy-4-fluorophenyl){6-[5-(5-fluoro-2-tolyl)-4-methyl-1-pyrazolyl]-2-aza-2-spiro[3.3]beptyl}methanone]
IC50 [3]: 1000 to 5100 nM

Structure (SMILES): Cc1cnn(C2CC3(C2)CN(C(=O)c2cc(O)ccc2F)C3)c1-c1ccccc1C(F)(F)F (atropisomer, axis not shown; (M)) [Compound 410, 4-fluoro-3-{6-[(4M)-4-methyl-5-[2-(trifluoromethyl)phenyl]-1H-pyrazol-1-yl]-2-azaspiro[3.3]heptane-2-carbonyl}phenol]
IC50 [3]: 50 to 150 nM

Structure (SMILES): Cc1cc(C2CC3(C2)CN(C(=O)c2cc[nH]c2)C3)n(-c2ccccc2C)n1 [Compound 184]
IC50 [7]: > 10000 nM

Structure (SMILES): CCOc1cc(F)ccc1C(=O)N1CC2(CC(C(=O)N(CC)c3ccccc3C)C2)C1 [Compound 203, N-ethyl-N-o-tolyl-2-(2-ethoxy-4-fluorobenzoyl)-2-aza-6-spiro[3.3]heptanecarboxamide]
IC50 (Method 4: Cayman Chemical MAGL enzyme, 15 nM, read-out: MAGL Potency (Detection Method)): 150 to 500 nM

Structure (SMILES): Cc1cc(C2CC3(C2)CN(C(=O)c2cc(O)ccc2F)C3)n(-c2ccccc2C(F)(F)F)n1 [Compound 366, (2-fluoro-5-hydroxyphenyl)(6-{3-methyl-1-[o-(trifluoromethyl)phenyl]-5-pyrazolyl}-2-aza-2-spiro[3.3]heptyl)methanone]
IC50 [6]: < 50 nM

Structure (SMILES): Cc1cnn(C2CC3(C2)CN(C(=O)c2cc(O)ccc2C(F)(F)F)C3)c1-c1ccccc1F [Compound 494]
IC50 [2]: > 10000 nM

Structure (SMILES): Cc1cc(C2CC3(C2)CN(C(=O)c2cc(O)ccc2F)C3)n(-c2cc(F)ccc2C)n1 [Compound 365, (2-fluoro-5-hydroxyphenyl){6-[1-(5-fluoro-2-tolyl)-3-methyl-5-pyrazolyl]-2-aza-2-spiro[3.3]heptyl}methanone]
IC50 [6]: < 50 nM

Structure (SMILES): Cc1cc(C2CC3(C2)CN(C(=O)c2cc(O)c(C)cc2F)C3)n(-c2ccccc2C)n1 [Compound 371, (2-fluoro-5-hydroxy-4-tolyl){6-[3-methyl-1-(o-tolyl)-5-pyrazolyl]-2-aza-2-spiro[3.3]heptyl}methanone]
IC50 [6]: 50 to 150 nM

Now from value to compound:

IC50 [2]: > 10000 nM
Structure (SMILES): O=C(c1c(F)cccc1OC1CC1)N1CC2(CC(n3ncc(C(F)(F)F)c3-c3ccccc3F)C2)C1 [Compound 521]

IC50 [5]: 150 to 500 nM
Structure (SMILES): Cc1ccc(F)cc1-c1cc(C)n(C2CC3(C2)CN(C(=O)c2ccc(F)cc2OCC(F)(F)F)C3)n1 [Compound 467, {6-[3-(5-fluoro-2-tolyl)-5-methyl-1-pyrazolyl]-2-aza-2-spiro[3.3]heptyl} [4-fluoro-2-(2,2,2-trifluoroethoxy)phenyl]methanone]

IC50 [3]: 50 to 150 nM
Structure (SMILES): Cc1cn(C2CC3(C2)CN(C(=O)c2ccc(F)cc2OC2CC2)C3)nc1-c1ccccc1C(F)(F)F [Compound 448, (2-cyclopropoxy-4-fluorophenyl)(6-{4-methyl-3-[o-(trifluoromethyl)phenyl]-1-pyrazolyl}-2-aza-2-spiro[3.3]heptyl)methanone]

IC50 [3]: 1000 to 5100 nM
Structure (SMILES): Cc1cnn(C2CC3(C2)CN(C(=O)c2ccc(F)cc2OC2CC2)C3)c1-c1ccccc1F [Compound 452, (2-cyclopropoxy-4-fluorophenyl){6-[5-(o-fluorophenyl)-4-methyl-1-pyrazolyl]-2-aza-2-spiro[3.3]beptyl}methanone]

IC50 [5]: 500 to 1000 nM
Structure (SMILES): Cc1cc(-c2cc(F)ccc2C)n(C2CC3(C2)CN(C(=O)c2ccc(F)cc2OCC(F)(F)F)C3)n1 [Compound 466]

IC50 [5]: 500 to 1000 nM
Structure (SMILES): Cc1ccc(F)cc1-c1cc(C(F)(F)F)n(C2CC3(C2)CN(C(=O)c2ccc(F)cc2OC2CC2)C3)n1 [Compound 456, (2-cyclopropoxy-4-fluorophenyl){6-[3-(5-fluoro-2-tolyl)-5-(trifluoromethyl)-1-pyrazolyl]-2-aza-2-spiro[3.3]heptyl}methanone]

IC50 [5]: 1000 to 5100 nM
Structure (SMILES): CCOc1cc(F)ccc1C(=O)N1CC2(CC(n3nc(C)cc3-c3cc(F)ccc3C)C2)C1 [Compound 462, (2-ethoxy-4-fluorophenyl){6-[5-(5-fluoro-2-tolyl)-3-methyl-1-pyrazolyl]-2-aza-2-spiro[3.3]heptyl}metbanone]

IC50 [8]: < 50 nM
Structure (SMILES): Cc1cn(C2CC3(C2)CN(C(=O)c2cc(O)ccc2F)C3)nc1-c1cc(F)ccc1F [Compound 477, {6-[3-(2,5-difluorophenyl)-4-methyl-1-pyrazolyl]-2-aza-2-spiro[3.3]heptyl}(2-fluoro-5-hydroxyphenyl)methanone]

IC50 [9]: 1000 to 5100 nM
Structure (SMILES): O=C(c1c(F)cccc1OC1CC1)N1CC2(CC(n3cc(C(F)(F)F)c(-c4ccccc4F)n3)C2)C1 [Compound 522, (2-cyclopropoxy-6-fluorophenyl){6-[3-(o-fluorophenyl)-4-(trifluoromethyl)-1-pyrazolyl]-2-aza-2-spiro[3.3]heptyl}methanone]

IC50 [5]: 500 to 1000 nM
Structure (SMILES): CCOc1cc(F)ccc1C(=O)N1CC2(CC(n3nc(-c4cc(F)ccc4C)cc3C)C2)C1 [Compound 463, (2-ethoxy-4-fluorophenyl){6-[3-(5-fluoro-2-tolyl)-5-methyl-1-pyrazolyl]-2-aza-2-spiro[3.3]heptyl}methanone]

IC50 [8]: 150 to 500 nM
Structure (SMILES): O=C(c1cc(O)ccc1F)N1CC2(CC(n3nc(C(F)(F)F)cc3-c3ccccc3C(F)(F)F)C2)C1 [Compound 487, (2-fluoro-5-hydroxyphenyl)(6-{3-(trifluoromethyl)-5-[o-(trifluoromethyl)phenyl]-1-pyrazolyl}-2-aza-2-spiro[3.3]heptyl)methanone]

IC50 [9]: < 50 nM
Structure (SMILES): O=C(c1cc(O)ccc1F)N1CC2(CC(n3cc(C4CC4)c(-c4ccccc4C(F)(F)F)n3)C2)C1 [Compound 488, (6-{4-cyclopropyl-3-[o-(trifluoromethyl)phenyl]-1-pyrazolyl}-2-aza-2-spiro[3.3]heptyl)(2-fluoro-5-hydroxyphenyl)methanone]
